This is an account of results in patent US20260166125A1, “NLRP12 AND NLRC5 MODULATORS AND METHODS FOR USING THE SAME TO MODULATE DISEASES” (St. Jude Children's Research Hospital, Inc., priority 2022, published 2026).

Experiment [1] concerns heme plus Pam3-treated BMDMs. Put plainly: Inhibitor effect on heme plus Pam3-induced cell death in BMDMs. The experiment is classed as cell-based, mouse. The procedure:
(§1) Bone Marrow-Derived Macrophages (BMDMs). Primary mouse BMDMs from wild-type and indicated mutant mice were grown for 6 days in Iscove's Modified Dulbecco's Medium (IMDM; Thermo Fisher Scientific) supplemented with 10% Fetal Bovine Serum (Biowest), 30% L929-conditioned media, 1% non-essential amino acids (Thermo Fisher Scientific) and 1% penicillin and streptomycin (Thermo Fisher Scientific). BMDMs at a density of 1×10^6 cells/well in 12-well plates or 5×10^5 cells/well in 24-well plates were seeded into growth media overnight before use.
(§2) Cell Stimulation. BMDMs were stimulated with the following PAMPs, DAMPs and inhibitors alone or in combinations where indicated: 50 μM Hemin (heme; Sigma-Aldrich), 0.75 μg/mL Pam3CSK4 (Pam3; InvivoGen), 15 ng/mL ultrapure lipopolysaccharide (LPS) from E. coli 0111:B4 (InvivoGen), 500 ng/ml R848 (InvivoGen), 100 ng/mL TNF-α (Peprotech), 1 μg/mL poly(I:C) (Invivogen), 200 ng/mL monosodium urate crystals (Invivogen), 200 ng/mL recombinant mouse S100A8/S100A9 heterodimer (bio-techne), 200 ng/mL recombinant mouse HMGB1 (Abcam), 25 μM Z-VAD(OMe)-FMK (zVAD; Cayman Chemical) and 45 μM Necrostatin 2 racemate (Nec-1; Selleckchem).
(§3) Real-Time Imaging for Cell Death. The kinetics of cell death were monitored using the IncuCyte S3 or SX5 (Sartorius) live-cell analysis system. BMDMs (5×10^5 cells/well) were seeded in 24-well tissue culture plates and were treated with the indicated stimuli. Cell death was measured by propidium iodide (PI; Life Technologies) incorporation following the manufacturer's protocol. The plate was scanned for the indicated time durations where fluorescent and phase-contrast images were acquired in real-time every 1 hour. PI-positive dead cells are marked with a red mask and were quantified using the software package supplied with the IncuCyte imager.

Experiment [2] concerns bone marrow-derived macrophages (BMDMs). Nature of the experiment: Real-time imaging for cell death (propidium iodide incorporation, IncuCyte). The conditions noted are these: WT BMDMs; stimuli alone or combined; 48 hours (FIG. 1, FIG. 2). The experiment is classed as cell-based, mouse. Here is the method:
as §1, §2, §3

Peptide text beside a SMILES is read from it. * marks the point of attachment. Cbz = O=C(OCc1ccccc1)*; CH2F = FC*

In the case of `CN1C(=O)NC(Cc2c[nH]c3c(Cl)cccc23)C1=O` (racemic) [Nec-1, Necrostatin 2 racemate], the “effect on cell death” value in experiment [1] (WT BMDMs, heme plus Pam3, Nec-1 alone, compared to PBS control) is “partially reduced cell death”.

Regarding `CC(C)(O)c1coc(S(=O)(=O)NC(=O)Nc2c3c(cc4c2CCC4)CCC3)c1` [MCC950], the “effect on cell death” value in experiment [1] (heme plus Pam3-treated BMDMs, MCC950) is listed as “did not prevent cell death”.

As to `O=c1[nH]c(=O)c2[nH]c([O-])nc2[nH]1.[Na+]` [MSU, monosodium urate], the cell death entry in experiment [2] is recorded as “did not induce cell death”.

Consider `C=CC1=C(C)c2cc3[n-]c(cc4[n-]c(cc5nc(cc1n2)C(C)=C5C=C)c(C)c4CCC(=O)O)c(CCC(=O)O)c3C.[Cl-].[Fe+3]` [heme, ferriprotoporphyrin IX chloride], for which, in experiment [2], the cell death entry is on record as “did not induce cell death”.

As for `COC(=O)C[C@H](NC(=O)[C@H](C)NC(=O)[C@@H](NC(=O)OCc1ccccc1)C(C)C)C(=O)CF` [zVAD, Z-VAD(OMe)-FMK] (Cbz-Val-Ala-Asp(OMe)-CH2F), the “effect on cell death” value in experiment [1] (WT BMDMs, heme plus Pam3, combination of Nec-1 with zVAD) is “further reduced the cell death”.

Consider Pam3CSK4, for which, in experiment [2], the cell death entry is listed as “Minimal cell death”.

Regarding lipopolysaccharide [LPS], the cell death entry in experiment [2] was “Minimal cell death”.

Regarding “polyinosinic:polycytidylic acid [poly(I:C)]”, the cell death result in experiment [2] is “Minimal cell death”.

B1: S100A8/A9: recombinant mouse S100A8/S100A9 heterodimer, a DAMP (protein, UniProt P27005 2-89; P31725 2-113, looked up)
Protein S100-A8: PSELEKALSNLIDVYHNYSNIQGNHHALYKNDFKKMVTTECPQFVQNINIENLFRELDINSDNAINFEEFLAMVIKVGVASHKDSHKE
Protein S100-A9: ANKAPSQMERSITTIIDTFHQYSRKEGHPDTLSKKEFRQMVEAQLATFMKKEKRNEALINDIMEDLDTNQDNQLSFEECMMLMAKLIFACHEKLHENNPRGHGHSHGKGCGK
For the molecule B1, in experiment [2], the cell death entry was “did not induce cell death”.

B2: high-mobility group box 1 protein (protein, UniProt P63158 1-215, looked up)
High mobility group protein B1: MGKGDPKKPRGKMSSYAFFVQTCREEHKKKHPDASVNFSEFSKKCSERWKTMSAKEKGKFEDMAKADKARYEREMKTYIPPKGETKKKFKDPNAPKRPPSAFFLFCSEYRPKIKGEHPGLSIGDVAKKLGEMWNNTAADDKQPYEKKAAKLKEKYEKDIAAYRAKGKPDAAKKGVVKAEKSKKKKEEEDDEEDEEDEEEEEEEEDEDEEEDDDDE
notes: recombinant mouse HMGB1, a DAMP
On to B2, for which, in experiment [2], the cell death result is reported as “did not induce cell death”.
